Test results taken from US20250325531A1, “TREATMENT OF SYSTOLIC DYSFUNCTION” (MyoKardia, Inc., priority 2024, published 2025).

Tested on: healthy volunteers
Assay: Safety and tolerability in food effect study, healthy volunteers
Assay type: in vivo, human
Conditions: 200 mg
Description: ECG was performed as described in Example 1. The following intervals were measured: RR, PR, QRS, and QT. Heart rate (HR) was calculated as […] (with RR expressed in msec) and rounded to the nearest integer. Each individual ECG QT value was corrected for HR. The measured QT data was corrected for HR using the Fridericia method (QTcF) as per the following formulae/method (with QT, RR and QTc expressed in ms): […]
The Investigator or designee monitored the continuous ECG telemetry data and correlated the finding(s) with any other clinical findings, study participant's medical history, study participant's clinical status and laboratory data to determine the clinical importance of the finding.
Serum troponin-I concentrations were determined as described in Example 1. Abnormal and/or rising troponin values (as per Investigator's judgment and taking into account potential Baseline troponin elevation) led to the subject being clinically evaluated for possible myocardial ischemia. […] The entire clinical context would be evaluated (e.g., signs, symptoms, new ECG changes, new troponin, and CK-MB abnormalities) and correlated with any other relevant clinical findings, the subject's medical history, and laboratory data to determine the clinical significance of the findings.

Cn1cc(S(=O)(=O)[C@@](C)(F)C2CCN(C(=O)Nc3ccon3)CC2)c(C(F)F)n1 [Compound I, (R)-4-(1-((3-(difluoromethyl)-1-methyl-1H-pyrazol-4-yl)sulfonyl)-1-fluoroethyl)-N-(isoxazol-3-yl) piperidine-1-carboxamide]
abnormal ECG results (fasted state): 3 (30.0%) n (%)
drug-related headache, subjects (fasted state): 3 subjects
headache, subjects (fasted state): 4 subjects
Cardiac disorders, subjects (fasted state (1 sinus tachycardia and 1 ventricular tachycardia)): 2 subjects
abnormal ECG results (fed state): 2 (20.0%) n (%)
drug-related headache, subjects (fed state): 1 subject
headache, subjects (fed state): 1 subject
Cardiac disorders, subjects (fed state (palpitations)): 1 subject
